Key:
[1] = system: growth factor receptor tyrosine kinases (RTKs) and signaling nodes; experiment: Phospho-RTK signaling array of HUVEC; format: cell-based, human; conditions: HUVEC exposed to Gal1
Method: Cells were lysed and analyzed by the human PathScan® RTK Signaling Antibody
(§1) Array (Cell Signaling) following manufacturer's directions. For co-immunoprecipitation, 500 μg cell lysates were incubated with 2 μg of anti-VEGFR2 (55B11; Cell Signaling) or anti-NRP-1 (C-19; Santa Cruz Biotechnol) antibodies. The immunocomplexes were captured with protein G PLUS-Agarose (Santa Cruz Biotechnol) and processed for immunoblot analysis as described in Ilarregui et al. (2009) Nat Immunol 10, 981-991. Equal amounts of protein were resolved by SDS-PAGE, blotted onto nitrocellulose membranes (GE Healthcare) and probed with anti-IκB-α (C21), anti-Erk1/2 (C14), anti-phospho-Erk1/2 (E4) or anti-actin (I-19) (all from Santa Cruz Biotechnol) or anti-Akt (9272), anti-phospho-Akt (9271S), anti-VEGFR2 (55B11), anti-phospho-VEGFR2 (19A10) (all from Cell Signaling) or anti-HIF-1α (mgc3; ABR BioReagent) antibodies or a rabbit anti-Gal1 IgG (1.5 μg/ml) obtained as described in Ilarregui et al. (2009) Nat Immunol 10, 981-991.

VEGFR2 = biological target: T1, VEGFR2 (Homo sapiens, UniProt P35968); experiment: Co-immunoprecipitation of Gal1 with VEGFR2 in HUVEC lysates; format: binding; conditions: lysates of human ECs treated with Gal1
T1 construct: co-immunoprecipitation results followed by immunoblot analysis of HUVEC lysates; endogenous in cells; host or cells: primary HUVEC
T1 sequence (P35968 20-1356): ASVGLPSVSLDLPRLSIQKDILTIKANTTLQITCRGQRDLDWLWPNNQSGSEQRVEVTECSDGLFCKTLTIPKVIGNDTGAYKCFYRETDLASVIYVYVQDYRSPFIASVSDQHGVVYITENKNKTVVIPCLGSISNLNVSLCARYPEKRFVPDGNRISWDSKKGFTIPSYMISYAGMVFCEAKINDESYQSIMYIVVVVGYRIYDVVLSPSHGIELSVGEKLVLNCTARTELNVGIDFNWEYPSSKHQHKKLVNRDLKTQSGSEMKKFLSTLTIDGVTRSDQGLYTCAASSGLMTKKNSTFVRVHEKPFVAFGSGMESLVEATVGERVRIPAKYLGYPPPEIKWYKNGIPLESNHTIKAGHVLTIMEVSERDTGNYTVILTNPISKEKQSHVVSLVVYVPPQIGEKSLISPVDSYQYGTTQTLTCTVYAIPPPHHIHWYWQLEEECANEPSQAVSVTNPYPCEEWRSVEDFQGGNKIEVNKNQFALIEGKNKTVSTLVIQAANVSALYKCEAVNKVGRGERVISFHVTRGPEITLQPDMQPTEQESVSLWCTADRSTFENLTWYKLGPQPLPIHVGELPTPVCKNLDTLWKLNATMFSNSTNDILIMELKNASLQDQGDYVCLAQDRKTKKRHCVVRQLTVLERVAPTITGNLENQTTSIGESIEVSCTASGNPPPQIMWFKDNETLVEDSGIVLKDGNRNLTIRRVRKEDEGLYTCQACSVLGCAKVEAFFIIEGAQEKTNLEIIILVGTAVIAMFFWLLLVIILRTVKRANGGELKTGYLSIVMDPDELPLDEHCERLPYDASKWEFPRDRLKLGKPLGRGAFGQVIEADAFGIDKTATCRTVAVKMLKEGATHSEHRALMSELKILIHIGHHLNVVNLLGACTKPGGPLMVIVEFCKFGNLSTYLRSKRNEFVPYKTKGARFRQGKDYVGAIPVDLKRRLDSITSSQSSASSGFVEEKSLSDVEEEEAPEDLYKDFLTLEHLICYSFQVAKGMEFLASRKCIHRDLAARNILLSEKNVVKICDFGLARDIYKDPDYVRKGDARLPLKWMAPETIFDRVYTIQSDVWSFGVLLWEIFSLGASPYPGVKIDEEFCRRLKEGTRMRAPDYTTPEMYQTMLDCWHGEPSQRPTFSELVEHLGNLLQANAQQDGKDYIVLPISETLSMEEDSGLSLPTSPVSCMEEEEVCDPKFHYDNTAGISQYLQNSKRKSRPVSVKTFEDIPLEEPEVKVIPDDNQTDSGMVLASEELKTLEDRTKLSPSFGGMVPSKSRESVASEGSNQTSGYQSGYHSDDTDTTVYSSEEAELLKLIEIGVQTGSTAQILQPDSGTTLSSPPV
T1 sequence (P09382 2-135 partner limits assumed): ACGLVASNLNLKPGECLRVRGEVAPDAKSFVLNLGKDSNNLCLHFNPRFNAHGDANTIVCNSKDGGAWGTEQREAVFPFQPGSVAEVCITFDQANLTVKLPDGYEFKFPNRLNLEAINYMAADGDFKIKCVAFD
Method: as §1

[2] = system: EBV-specific CD8+ T cells; experiment: rGal1-induced killing of EBV-specific CTLs; format: cell-based, human; conditions: rGal1 alone, 1.25, 2.5 or 5 μM; 4 h; 7AAD
Method: After informed consent, 40-60 ml of peripheral blood from healthy donors was used to generate both EBV-transformed LCLs and EBV-specific CTLs (Straathof et al. (2005) Blood 105:1898-904). In brief, 5×10^6 peripheral blood mononuclear cells (PBMCs) were incubated with concentrated culture supernatant from the marmoset B-lymphoblastoid cell line, B95-8, in the presence of 1 μg/ml cyclosporin A (Sandoz, Vienna, Austria) to establish a LCL. Subsequently, PBMCs (2×10^6 per well of a 24-well plate) were stimulated with irradiated LCLs (at 4,000 rads) at an effector-stimulator (E/S) ratio of 40:1. After 10 days, viable cells were restimulated with irradiated LCLs (at 4:1 E/S ratio). CTLs were expanded by weekly stimulations with autologous irradiated LCLs (at 4:1 E/S ratio) in the presence of recombinant human interleukin-2 (rhIL-2, Proleukin; Chiron Emeryville, Calif.) at concentration of 40 U/ml. After 5 cycles of stimulation, CTLs were tested for EBV specificity and cryopreserved. […]
CTLs were thawed in AIM-V media (Invitrogen) containing 10 U/ml of DNAse I (Roche Applied Science, Indianapolis, Ind.) and rested in culture overnight. […] After 4 hours, the viability of EBV-specific CD8^+ T cells was measured using 7AAD and APC-Cy7-labelled CD8 (BD Biosciences, San Jose, Calif.).

## rGal1: recombinant human galectin-1
[1]
  phosphorylation of Akt (Thr308), Akt (Ser473) and Erk1/2: increased
[1]; as early as 15 min
  phosphorylation of VEGFR2: became phosphorylated
VEGFR2
  association with VEGFR2: associated specifically
[2]
  apoptosis of EBV-specific CD8+ T cells: induced massive apoptosis

Source: US10456465B2, “Compositions, kits, and methods for the diagnosis prognosis, monitoring, treatment and modulation of post-transplant lymphoproliferative disorders and hypoxia associated angiogenesis disorders using galectin-1” (Dana-Farber Cancer Institute, Inc., priority 2009, dated 2019)
